Assay results: ChEMBL document CHEMBL3046111, “Synthesis and insecticidal activity of 1,2,4-oxadiazole and 1,2,4-thiadiazole derivatives” (2011)

Experiments:
[1] = tested on: Aphis craccivora; assay: Insecticidal activity against Aphis craccivora (cowpea aphid) apterous adults reared on broad bean seedlings followed by compound spraying at 200 ppm assessed as insect mortality measured after 4 days; format: functional; conditions: 96 h
[2] = tested on: Nilaparvata lugens; assay: Insecticidal activity against imidacloprid-sensitive Nilaparvata lugens (brown planthopper) fourth-instar larvae reared on compound pre-treated rice seedlings assessed as insect mortality at 200 ppm measured after 7 days; format: functional
[3] = tested on: Nephotettix cincticeps; assay: Insecticidal activity against Nephotettix cincticeps (green rice leafhopper) fourth instar larvae reared on compound pre-treated rice seedlings assessed as insect mortality at 10 ppm measured after 7 days; format: functional
[4] = tested on: Nephotettix cincticeps; assay: Insecticidal activity against Nephotettix cincticeps (green rice leafhopper) fourth instar larvae reared on compound pre-treated rice seedlings assessed as insect mortality at 100 ppm measured after 7 days; format: functional
[5] = tested on: Nilaparvata lugens; assay: Insecticidal activity against imidacloprid-sensitive Nilaparvata lugens (brown planthopper) fourth-instar larvae reared on compound pre-treated rice seedlings assessed as insect mortality at 10 ppm measured after 7 days; format: functional
[6] = tested on: Nilaparvata lugens; assay: Insecticidal activity against imidacloprid-sensitive Nilaparvata lugens (brown planthopper) fourth-instar larvae reared on compound pre-treated rice seedlings assessed as insect mortality at 100 ppm measured after 7 days; format: functional
[7] = biological target: T1, Muscarinic acetylcholine receptor DM1 (Drosophila melanogaster) (UniProt P16395); assay: Inhibition of [3H]NMS from mAChR in Musca domestica (house fly) nerve-cord membranes at […] incubated at 21 degC for 60 min
T1 sequence (whole entry): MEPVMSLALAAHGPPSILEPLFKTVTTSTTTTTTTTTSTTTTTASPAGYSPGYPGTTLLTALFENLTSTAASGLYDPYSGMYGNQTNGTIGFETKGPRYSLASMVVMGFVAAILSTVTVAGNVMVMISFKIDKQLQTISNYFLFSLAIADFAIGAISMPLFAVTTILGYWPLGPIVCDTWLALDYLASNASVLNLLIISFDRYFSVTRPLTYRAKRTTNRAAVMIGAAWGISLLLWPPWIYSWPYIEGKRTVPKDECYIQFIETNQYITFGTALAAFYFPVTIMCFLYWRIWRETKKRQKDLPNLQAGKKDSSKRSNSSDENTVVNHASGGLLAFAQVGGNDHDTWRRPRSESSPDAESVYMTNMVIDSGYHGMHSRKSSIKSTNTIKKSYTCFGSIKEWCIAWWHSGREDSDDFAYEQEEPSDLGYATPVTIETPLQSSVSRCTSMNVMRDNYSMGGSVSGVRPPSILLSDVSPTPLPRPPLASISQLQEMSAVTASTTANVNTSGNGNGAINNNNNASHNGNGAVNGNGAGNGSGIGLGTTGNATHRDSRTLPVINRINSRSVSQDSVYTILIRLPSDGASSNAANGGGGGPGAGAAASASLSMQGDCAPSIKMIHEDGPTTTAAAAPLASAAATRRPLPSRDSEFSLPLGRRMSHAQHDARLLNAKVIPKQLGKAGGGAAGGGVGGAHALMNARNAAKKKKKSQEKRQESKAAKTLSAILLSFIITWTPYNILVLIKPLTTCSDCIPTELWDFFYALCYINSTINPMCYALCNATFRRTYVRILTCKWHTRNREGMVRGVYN

[8] = tested on: Nilaparvata lugens; assay: Insecticidal activity against imidacloprid-resistant Nilaparvata lugens (brown plant hopper) fourth-instar larvae reared on compound pre-treated rice seedlings assessed as insect mortality at 1 ppm measured after 7 days; format: functional
[9] = tested on: Nilaparvata lugens; assay: Insecticidal activity against imidacloprid-resistant Nilaparvata lugens (brown planthopper) fourth-instar larvae reared on compound pre-treated rice seedlings assessed as insect mortality at 10 ppm measured after 7 days; format: functional
[10] = tested on: Nilaparvata lugens; assay: Insecticidal activity against imidacloprid-resistant Nilaparvata lugens (brown planthopper) fourth-instar larvae reared on compound pre-treated rice seedlings assessed as insect mortality at 100 ppm measured after 7 days; format: functional
[11] = tested on: Nilaparvata lugens; assay: Insecticidal activity against imidacloprid-sensitive Nilaparvata lugens (brown planthopper) fourth-instar larvae reared on compound pre-treated rice seedlings assessed as insect mortality at 1 ppm measured after 7 days; format: functional
[12] = biological target: T2, Nicotinic acetylcholine receptor alpha 5 subunit (Musca domestica) (UniProt A9XFY4); assay: Inhibition of [3H]EPI from nicotinic acetylcholine receptor in Musca domestica (house fly) nerve-cord membranes at […] incubated at 21 degC for 60 min
T2 sequence (whole entry): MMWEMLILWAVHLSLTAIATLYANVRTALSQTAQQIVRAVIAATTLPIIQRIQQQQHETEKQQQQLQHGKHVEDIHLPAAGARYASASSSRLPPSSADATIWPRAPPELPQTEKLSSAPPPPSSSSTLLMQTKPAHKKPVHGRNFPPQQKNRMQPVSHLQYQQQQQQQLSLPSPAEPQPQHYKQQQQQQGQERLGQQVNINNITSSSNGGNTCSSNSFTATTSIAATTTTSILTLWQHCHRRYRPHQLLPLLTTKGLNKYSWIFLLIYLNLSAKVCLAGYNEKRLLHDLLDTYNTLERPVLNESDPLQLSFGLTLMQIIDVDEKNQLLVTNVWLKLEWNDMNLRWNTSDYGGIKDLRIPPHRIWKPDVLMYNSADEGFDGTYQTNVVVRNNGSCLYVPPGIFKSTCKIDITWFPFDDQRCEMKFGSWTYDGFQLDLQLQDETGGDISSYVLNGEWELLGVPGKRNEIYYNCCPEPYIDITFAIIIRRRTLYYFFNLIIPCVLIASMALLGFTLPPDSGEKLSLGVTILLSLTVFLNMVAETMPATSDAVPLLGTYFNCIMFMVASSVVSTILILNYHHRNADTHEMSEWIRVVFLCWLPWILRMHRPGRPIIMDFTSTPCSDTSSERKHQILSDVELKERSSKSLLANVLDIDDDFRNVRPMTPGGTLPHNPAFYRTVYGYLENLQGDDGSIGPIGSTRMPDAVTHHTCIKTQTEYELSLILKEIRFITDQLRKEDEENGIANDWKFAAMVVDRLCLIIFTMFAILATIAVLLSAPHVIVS

[13] = tested on: Nilaparvata lugens; assay: Insecticidal activity against imidacloprid-resistant Nilaparvata lugens (brown planthopper) fourth-instar larvae reared on compound pre-treated rice seedlings assessed as insect mortality at 0.1 ppm measured after 7 days; format: functional
[14] = tested on: Nilaparvata lugens; assay: Insecticidal activity against imidacloprid-sensitive Nilaparvata lugens (brown planthopper) fourth-instar larvae reared on compound pre-treated rice seedlings assessed as insect mortality at 0.1 ppm measured after 7 days; format: functional

Structure (SMILES): Cc1nsc(-c2ccc[n+](C)c2)n1
- mortality at 200 ppm [1]: 60%
- mortality at 200 ppm [2]: 40%

Structure (SMILES): C=CCN1CCC=C(c2ncns2)C1
- mortality at 200 ppm [1]: 40%
- mortality at 10 ppm [3]: 10%
- mortality at 100 ppm [4]: 60%
- mortality at 10 ppm [5]: 60%
- mortality at 100 ppm [6]: 100%
- mortality at 200 ppm [2]: 100%

Structure (SMILES): CN1CCC=C(c2ncns2)C1
- mortality at 200 ppm [1]: 30%
- mortality at 200 ppm [2]: 60%

Structure (SMILES): C#CCN1CCC=C(c2ncns2)C1
- mortality at 200 ppm [1]: 30%
- mortality at 10 ppm [3]: 20%
- mortality at 100 ppm [4]: 60%
- mortality at 10 ppm [5]: 30%
- mortality at 100 ppm [6]: 100%
- mortality at 200 ppm [2]: 100%

Structure (SMILES): Cc1nsc(-c2cccnc2)n1
- inhibition [7]: 12%
- mortality at 1 ppm [8]: 50%
- mortality at 10 ppm [9]: 90%
- mortality at 100 ppm [10]: 100%
- mortality at 1 ppm [11]: 60%
- mortality at 200 ppm [1]: 100%
- mortality at 10 ppm [3]: 30%
- mortality at 100 ppm [4]: 80%
- mortality at 10 ppm [5]: 80%
- mortality at 100 ppm [6]: 100%
- mortality at 200 ppm [2]: 100%
- inhibition [12]: 4%

Structure (SMILES): Cc1noc(-c2cccnc2)n1
- mortality at 200 ppm [1]: 30%
- mortality at 100 ppm [4]: 100%
- mortality at 100 ppm [6]: 60%
- mortality at 200 ppm [2]: 90%

Structure (SMILES): Cc1nsc(C2=CCCN(CC(C)C)C2)n1
- mortality at 200 ppm [1]: 50%
- mortality at 10 ppm [3]: 0%
- mortality at 100 ppm [4]: 10%
- mortality at 10 ppm [5]: 70%
- mortality at 100 ppm [6]: 100%
- mortality at 200 ppm [2]: 100%

Structure (SMILES): c1cncc(-c2ncno2)c1
- mortality at 200 ppm [1]: 20%
- mortality at 200 ppm [2]: 50%

Structure (SMILES): C[n+]1cccc(-c2ncns2)c1
- mortality at 200 ppm [1]: 30%
- mortality at 200 ppm [2]: 80%

Structure (SMILES): Cc1nsc(C2CCCN(C)C2)n1 (stereo not drawn)
- mortality at 200 ppm [1]: 0%
- mortality at 200 ppm [2]: 30%

Structure (SMILES): C#CC[n+]1cccc(-c2nc(C)ns2)c1
- mortality at 200 ppm [1]: 70%
- mortality at 10 ppm [3]: 10%
- mortality at 100 ppm [4]: 50%
- mortality at 10 ppm [5]: 40%
- mortality at 100 ppm [6]: 80%
- mortality at 200 ppm [2]: 90%

Structure (SMILES): CCCCCCCCCC[n+]1cccc(-c2nc(C)ns2)c1
- mortality at 200 ppm [1]: 60%
- mortality at 200 ppm [2]: 0%

Structure (SMILES): O=[N+]([O-])/N=C1\NCCN1Cc1ccc(Cl)nc1 [IMIDACLOPRID]
- mortality at 0.1 ppm [13]: 50%
- mortality at 1 ppm [8]: 80%
- mortality at 10 ppm [9]: 100%
- mortality at 0.1 ppm [14]: 90%
- mortality at 1 ppm [11]: 100%

Structure (SMILES): Cc1noc(-c2ccncc2)n1
- mortality at 200 ppm [1]: 0%
- mortality at 200 ppm [2]: 10%

Structure (SMILES): CCC(C)[n+]1cccc(-c2nc(C)ns2)c1 (stereo not drawn)
- mortality at 200 ppm [1]: 20%
- mortality at 10 ppm [3]: 10%
- mortality at 100 ppm [4]: 50%
- mortality at 10 ppm [5]: 90%
- mortality at 100 ppm [6]: 90%
- mortality at 200 ppm [2]: 100%

Structure (SMILES): Cc1nsc(-c2ccc[n+](Cc3ccccc3)c2)n1
- mortality at 200 ppm [1]: 10%
- mortality at 200 ppm [2]: 20%

Structure (SMILES): CCCCCCCCCCN1CCC=C(c2nc(C)ns2)C1
- mortality at 200 ppm [1]: 60%
- mortality at 200 ppm [2]: 30%

Structure (SMILES): Cc1nsc(C2=CCCN(CC#N)C2)n1
- mortality at 200 ppm [1]: 50%
- mortality at 10 ppm [3]: 0%
- mortality at 100 ppm [4]: 50%
- mortality at 10 ppm [5]: 10%
- mortality at 100 ppm [6]: 100%
- mortality at 200 ppm [2]: 100%

Structure (SMILES): c1cncc(-c2ncns2)c1
- mortality at 200 ppm [1]: 100%
- mortality at 10 ppm [3]: 40%
- mortality at 100 ppm [4]: 70%
- mortality at 10 ppm [5]: 60%
- mortality at 100 ppm [6]: 100%
- mortality at 200 ppm [2]: 100%

Structure (SMILES): Cc1noc(C2=CCCN(C)C2)n1
- mortality at 200 ppm [1]: 0%
- mortality at 10 ppm [3]: 50%
- mortality at 100 ppm [4]: 90%
- mortality at 10 ppm [5]: 70%
- mortality at 100 ppm [6]: 90%
- mortality at 200 ppm [2]: 100%

Structure (SMILES): Cc1nsc(-c2ccncc2)n1
- mortality at 200 ppm [1]: 40%
- mortality at 10 ppm [3]: 20%
- mortality at 100 ppm [4]: 40%
- mortality at 10 ppm [5]: 20%
- mortality at 100 ppm [6]: 100%
- mortality at 200 ppm [2]: 100%

Structure (SMILES): Cc1noc(-c2ccc[n+](C)c2)n1
- mortality at 200 ppm [1]: 10%
- mortality at 200 ppm [2]: 10%

Structure (SMILES): Cc1nsc(C2=CCCN(C)C2)n1
- inhibition [7]: 62%
- mortality at 1 ppm [8]: 50%
- mortality at 10 ppm [9]: 90%
- mortality at 100 ppm [10]: 100%
- mortality at 1 ppm [11]: 30%
- mortality at 200 ppm [1]: 40%
- mortality at 10 ppm [3]: 0%
- mortality at 100 ppm [4]: 30%
- mortality at 10 ppm [5]: 80%
- mortality at 100 ppm [6]: 100%
- mortality at 200 ppm [2]: 100%
- inhibition [12]: 6%

Structure (SMILES): CCCC[n+]1cccc(-c2nc(C)ns2)c1
- mortality at 200 ppm [1]: 10%
- mortality at 200 ppm [2]: 50%

Structure (SMILES): C[n+]1cccc(-c2ncno2)c1
- mortality at 200 ppm [1]: 20%
- mortality at 200 ppm [2]: 60%

Structure (SMILES): CCCCN1CCC=C(c2nc(C)ns2)C1
- mortality at 200 ppm [1]: 30%
- mortality at 10 ppm [3]: 10%
- mortality at 100 ppm [4]: 20%
- mortality at 10 ppm [5]: 30%
- mortality at 100 ppm [6]: 100%
- mortality at 200 ppm [2]: 100%

Structure (SMILES): CCN1CCC=C(c2nc(C)ns2)C1
- mortality at 200 ppm [1]: 40%
- mortality at 10 ppm [3]: 10%
- mortality at 100 ppm [4]: 50%
- mortality at 10 ppm [5]: 40%
- mortality at 100 ppm [6]: 100%
- mortality at 200 ppm [2]: 100%

Structure (SMILES): Cc1nsc(-c2ccccn2)n1
- mortality at 200 ppm [1]: 30%
- mortality at 200 ppm [2]: 40%

Structure (SMILES): Cc1nsc(C2=CCCN(Cc3ccccc3)C2)n1
- mortality at 200 ppm [1]: 10%
- mortality at 10 ppm [3]: 0%
- mortality at 100 ppm [4]: 30%
- mortality at 10 ppm [5]: 10%
- mortality at 100 ppm [6]: 100%
- mortality at 200 ppm [2]: 100%

Structure (SMILES): Cc1nsc(-c2ccc[n+](CC#N)c2)n1
- mortality at 200 ppm [1]: 70%
- mortality at 10 ppm [3]: 10%
- mortality at 100 ppm [4]: 40%
- mortality at 10 ppm [5]: 50%
- mortality at 100 ppm [6]: 80%
- mortality at 200 ppm [2]: 90%

Structure (SMILES): Cc1noc(-c2ccccn2)n1
- mortality at 200 ppm [1]: 0%
- mortality at 200 ppm [2]: 10%

Structure (SMILES): CC[n+]1cccc(-c2nc(C)ns2)c1
- mortality at 200 ppm [1]: 20%
- mortality at 200 ppm [2]: 20%

Structure (SMILES): C=CC[n+]1cccc(-c2nc(C)ns2)c1
- mortality at 200 ppm [1]: 10%
- mortality at 200 ppm [2]: 40%
